How the values were obtained:
HIF1α protein = assay: HIF immunoblot in SH-SY5Y neuroblastoma cells; assay type: cell-based, human; details: 5 μM, three hours
Description: After three hours of 5 μM drug treatment, cells were scraped in ice cold PBS and centrifuged at 1,000×g per 5 min. The pellet was used for nuclear extract preparation with the NE-PER Nuclear and Cytoplasmic Extraction kit (Pierce). After SDS-PAGE followed by transfer to a nitrocellulose membrane, the latter was incubated overnight at 4° C. with primary polyclonal antibody against HIF-1α (Upstate) and monoclonal antibody against β-actin (Sigma) (dilution 1:250 and 1:5000, respectively, in Odyssey Blocking Buffer). Secondary fluorophore conjugated Odyssey IRDye-680 and IRD-800 antibodies (LI-COR Biosciences) were added at 1:20,000 in Odyssey Blocking Buffer, and incubated for one hour at room temperature. Immunoreactive proteins were detected using Odyssey IR imaging system (LI-COR Biosciences).

[1] = tested on: HIF ODD-luc reporter (HIF PHD-controlled stability); assay: HTS with cell-based HIF ODD-luciferase reporter (SH-SY5Y-ODD-luc cells); parameters: species or system human; details: three hours, SH-SY5Y-ODD-luc
Excerpt: For HTS, a cell-based reporter system was employed. The cell-based reporter system was generated by fusing HIF-1a oxygen degradable domain (ODD) to luciferase (Safran M. et al., PNAS, 2006, 103, 105-110), which represents a cell-based capture assay monitored by the consumption of the luciferase-labeled HIF substrate under the conditions more physiological than in vitro test tubes. In accord with their structure activity relationship in reporter assay, the best “hits” stabilize HIF1, upregulate known HIF target genes in a human neuronal line, and exert neuroprotective effects in established model of oxidative stress in cortical neurons.
The reporter cell lines constitutively expressing ODD-luc (human neuroblastoma, SH-SY5Y) were stable for more than one year without significant change in their response to canonical PHD inhibitors such as DFO, dihydroxybenzoate (DHB), dimethyloxalylglycine (DMOG), and ciclopirox (FIG. 1B). In order to verify the specificity of luciferase changes as an assay for PHD activity, several control lines were developed: the control line expressing ODD-luc with proline 564 and 567 mutated to Ala generates luciferase fusion that cannot be degraded and experimentally identifies a ceiling level of ODD-luc protein attainable in these cells. The background signal for the wild-type HIF ODD-luc line (PYIP) corresponds to approximately 5-6% of the ODD-luc levels in the control line AYIA (double mutant P564A/P567A line) (FIG. 2). Treatment with 10 μM ciclopirox results in a 10-fold increase of a background signal for the wild-type ODD-luc reporter (PYIP line), i.e. reaches almost 50% of the threshold value (FIG. 2).
The assay was optimized for HTS format to provide Z values above 0.7. SH-SY5Y-ODD-luc cells were plated into 384—well white flat-bottom plates at 7,000 cell/well in 30 μl of serum and incubated overnight at 37° C., 5% CO2. The next day, compounds were added to a final concentration of 10 μM, plates were incubated for three hours at 37° C., and luciferase activity was measured using SteadyGlo™ reagent (Promega). Each plate had two internal standards, ciclopirox (100%), and DMSO (0%). The reporter activation (%) was calculated as a ratio (L−LDMSO)/(Lciclopirox−LDMSO). Hits were defined as those >25%. HTS of 85,000 compounds was performed at Rockefeller HTS Resource Center. 295 hits from the initial screen have been tested in quadruplicate, 160 were confirmed. Classification into 10 structural clusters has been done manually; 25 hits were singletons.

`Oc1cccc2cccnc12` [8-hydroxyquinoline, reference compound] was tested, and the HIF1α protein stabilization (HIF1α protein) was “not”, the “fold reporter activation over background” value ([1]; 10 μM) was 4-5 fold and the activation at 10 µM ([1]; Homo sapiens, 3 h, read-out: reporter activation (%) relative to ciclopirox (100%) and DMSO (0%)) was 35 to 45%.

From patent publication US9505741B2, “Prolylhydroxylase inhibitors and methods of use” (CORNELL UNIVERSITY, priority 2010, dated 2016)
